For one assay, the system named is JNK. The assay can be described thus: NRAGE- and p75NTR-induced JNK activation in PC12rtTA cells (c-Jun phosphorylation, caspase-3 cleavage, immunoblot). The conditions noted are these: for c-Jun phosphorylation: AdNRG infected, 30 hours (FIG. 6C). The assay is classed as cell-based. As for the experimental part: FIGS. 2C and 2D are photographs of Western blots which illustrate that compound 1 inhibits NRAGE- and p75NTR-induced JNK activation. C, D: Compound 1 inhibits NRAGE- and p75NTR-induced JNK activation. PC12^rtTA cells were infected with AdNRG at 5 MOI (C), with Adp75 at 50 MOI (D), or with AdLacZ at an equivalent MOI for each experiment, as indicated. At time of infection, the cells were treated with increasing concentrations of compound 1, or with vehicle alone, as indicated. […] Experiments in Panel A-D were performed three times with essentially identical results.
Activation of JNK activity is necessary for the induction of p75NTR- or NRAGE-initiated caspase cleavage and cell death (Bhakar et al., 2003; Salehi et al., 2002). Therefore, the effect of compound 1 on the activity of JNK was assessed by analyzing alterations in the phosphorylation level of the JNK target, c-Jun, and the cleavage status of caspase-3. […] Thus, the suppression of JNK signaling and caspase-3 cleavage mediated by compound 1 occurred with a dose-dependency similar to the anti-apoptotic activity of compound 1.
Cell culture, infection, transfection and immunoblotting. Sympathetic neurons were maintained and deprived of NGF as previously described (Bamji et al., 1998; Ma et al., 1992). PC12^rtTA cells were maintained and infected as previously described (Majdan et al., 1997; Salehi et al., 2002); for NRAGE, […] doxycycline was added to all plates at time of infection. Wildtype and HSF1 nullizygous immortalized mouse embryonic fibroblasts (MEFs) were maintained in DMEM containing 10% fetal calf serum, 1 μM β-mercaptoethanol, 1% non-essential amino acids, 1% L-glutamine, 1% antimycotic solution and 1% sodium pyruvate (all from GibcoBRL). Sympathetic neuron survival was assessed using the MTS assay according to the manufacturer's instructions (Promega). Analysis of PC12 cell death was determined using a lactate dehydrogenase (LDH) assay (Roche) as per the manufacturer's instructions. Transfections using plasmids or RNAi were performed using Lipofectamine 2000. Immunoblotting was performed as previously described (Majdan et al., 1997; Salehi et al., 2002).

The test system of another assay is HSP70. The experiment in a line: HSP protein expression in PC12 / PC12rtTA cells (immunoblot). The assay is classed as cell-based. The conditions noted are these: for HSP70 production: PC12rtTA cells infected with AdNRG, Adp75 or AdLacZ, 30 hours (FIG. 6A). The procedure:
FIGS. 4A-4C are photographs of Western blots which illustrate that compound 1 treatment of PC12 cells induces expression of HSP70. A: PC12 cells were infected with 5 MOI of AdNRG (NRG) or AdLacZ (LacZ) as indicated. Cells were left untreated (0) or treated with 40 μM compound 1 at time of infection (30), one hour before lysis (1), or at both times (30+1). Cells were lysed thirty hours after infection, normalized for protein content, and analyzed for levels of phospho-Ser^63 c-Jun and total c-Jun, total JNK, IkBα, and NRAGE by immunoblotting. Lysates from untreated cells are indicated by ‘−’. B: PC12 cells were treated with the indicated concentrations of compound 1 for 18 hours and then lysed, normalized for protein content, and analyzed for levels of HSP70 by immunoblotting. Lysates from untreated cells are indicated by ‘−’. C: RNA isolated from PC12^rtTA cells treated with increasing concentrations of compound 1 for 18 hours was analyzed by rtPCR using primers specific to HSP70, HSP25, HSP90 or actin, as indicated. Experiments in Panel A and B were performed three times and that in Panel C was performed twice, with essentially identical results. D: PC12^rtTA cells were infected with AdNRG at 5 MOI, Adp75 at 50 MOI, or the control virus AdLacZ at 50 MOI. At time of infection, the cells were treated with increasing concentrations of compound 1, or with vehicle alone, as indicated. Thirty hours after infection, cells were lysed, normalized for protein content, and analyzed for levels of c-Jun phosphorylation, HSP70, HSP25, HSP40, NRAGE, p75NTR, JNK-1 and IkBα, as indicated.
FIGS. 6A, 6B and 6C are graphs and photographs of Western blots which illustrate that compound 1 analogues inhibit JNK activation and induce expression of HSP70. A: PC12^rtTA cells were infected with 5 MOI of AdNRG, 50 MOI of Adp75 or 50 MOI of the control virus AdLacZ. At time of infection, the cells were treated with an increasing concentrations of compound 1, or its analogues, compound 2, compound 3, compound 4, or with vehicle alone, as indicated. Thirty hours after infection, cells were lysed, normalized for protein levels, and analyzed for levels of HSP70, HSP25 and JNK-1, as indicated. B: PC12^rtTA cells were treated as above and after 40 hours infection were assayed for death using the lactate dehydrogenase (LDH) assay. Results are normalized relative to those obtained with 1% Triton, and represent the mean±standard deviation of a representative experiment performed in triplicate (*=P<0.025 relative to ‘0’ for each compound concentration). C: PC12^rtTA cells were infected with 50 MOI of LacZ or 5 MOI of AdNRG50 and at the time of infection, were treated with 40 μM compound 1, or its analogues, compound 2, compound 3, compound 4, or with vehicle alone, as indicated. Thirty hours after infection, cells were lysed, normalized for protein levels, and were analyzed for phosphorylated c-Jun, total c-Jun, NRAGE and JNK-1, as indicated. Experiments in Panel A and C were performed twice and that in B were performed twice, with essentially identical results.
To address this, SCG neurons were treated with compound 1 for 18 hours then lysed and assessed for HSP70 levels by immunoblot. Uninfected PC12rtTA cells were treated in a similar manner. […] To test if the accumulation of HSP70 induced by compound 1 reflected increased steady state levels of its mRNA, RNA was isolated from PC12 cells treated with increasing concentrations of compound 1 for 18 hours and the cell lysates subjected to semi-quantitative rtPCR. […] HSP protein levels were also assessed in PC12rtTA cells infected with AdLacZ, Adp75, or AdNRG, and at the same time, exposed to compound 1.
For orientation: In western blotting, separated proteins are transferred to a membrane and probed.

The mark [1] stands for this setting: cells infected with LacZ or Adp75, increasing concentrations.

Take `NS(=O)(=O)c1nn2cc(-c3ccccc3)nc2s1` [Compound 1]: the “c-Jun phosphorylation and caspase-3 cleavage” value in the assay on JNK (10 μM, AdNRG infected cells) is on record as “significant decrease”. Further, in the assay on JNK (40 μM, AdNRG infected cells), the “decrease in c-Jun phosphorylation and caspase-3 cleavage” value is given as “virtually complete”. For the same compound, the c-Jun phosphorylation result in the assay with JNK (40 μM) is “reducing”. In addition, the “ability to block c-jun phosphorylation in cells transfected with HSP70 RNAi” value with JNK (HSP70 siRNA transfected PC12rtTA cells) was “small but consistent attenuation”. The JNK inhibitory effects entry in the assay with JNK (extended (24 hour) incubation, 40 μM) is on record as “occurred”. Also, the JNK inhibitory effects entry in the assay with JNK (short term (1 hr) incubation, 40 μM) is “not short term”. Further, the HSP70 production entry with HSP70 was “induced HSP70 production”. Further, the “HSP70 levels versus AdNRG alone” value in the assay with HSP70 (cells infected with AdNRG) is “substantially higher”. In addition, in the assay with HSP70 (setting [1]), the HSP40 protein level result is reported as “not HSP40”; the “HSP70 and HSP25 protein levels” value was “robust increase”. Further, in the assay with HSP70 (uninfected PC12rtTA cells, 18 hours), the “cellular HSP70 levels” value is reported as “large increase”.
Regarding `NS(=O)(=O)c1nn2cc(-c3ccc(N4CCOCC4)cc3)nc2s1` [Compound 2], the c-Jun phosphorylation entry with JNK (40 μM) is recorded as “reducing”. Besides, the HSP70 production result with HSP70 is “robustly induced HSP70 production”.

Source of the values: patent US20090179638A1, “ASSAY FOR IDENTIFYING INHIBITORS OF NEURONAL APOPTOTIC PATHWAYS” (AEGERA THERAPEUTICS INC., priority 2006, published 2009).
